Source: patent publication US9274101B2 (BIOLOG, Inc., priority 2001, dated 2016)

Key:
[1] = test system: E. coli MG1655; type: cell-based, Escherichia coli
[2] = test system: Undifferentiated HL-60 cells; assay: Energy use by undifferentiated HL-60 cells; type: cell-based, human; conditions: for activity at 30 µM / activity at 100 µM / activity at 330 µM / activity at 1000 µM / activity at 3300 µM / activity at 10000 µM / activity at 15000 µM / activity at 20000 µM: Homo sapiens, HL-60, 24 h, read-out: Energy Use by Undifferentiated HL-60 Cells
[3] = test system: HL-60 cells; assay: HL-60 responses to selected compounds at a range of concentrations; type: cell-based, human; conditions: for activity at 30 µM / activity at 100 µM / activity at 330 µM / activity at 1000 µM / activity at 3300 µM / activity at 10000 µM / activity at 15000 µM / activity at 20000 µM: Homo sapiens, HL-60, read-out: HL-60 Cell Responses to Selected Compounds from PM1 and PM2
Method: In this Example, methods for testing unattached cells for their ability to use various concentrations of selected carbon sources are described. The carbon sources used in this Example were identified by the methods disclosed in Example 27. Similarly, HL-60 cells were cultured as described in Example 27.
After washing, HL-60 cells were resuspended in DME-R. An aliquot of the cell suspension was counted by trypan blue exclusion and the cell density was adjusted to 6.67×10^5/mL. Fifty μL of DME-R were added to each well of the appropriate number of half area, 96-well plates, followed by 23 μL of the appropriate dilution of each test energy source. Stocks of 133 mM of each test chemical were prepared in tissue culture grade water, sterile filtered, and dilutions were prepared in a master plate so that, upon dilution in a total volume of 150 μL, the final concentrations would be 0.033 to 20 mM. Negative control wells received 23 μL of tissue culture grade water. The cells were plated at a volume of 75 μL/well, giving a final cell density of 5×10^4/well. For each plate containing energy sources and cells, a second, control plate containing only energy sources was prepared. Plates were incubated at 5% CO2, 90-100% humidity, and 37° C. for 24 hours prior to addition of the MTS/MPMS colorometric reagent (7.5 μL/well). The color formed in each well after an additional 24 hour incubation period, was measured on a plate reader at 490 nm with a reference wavelength of 650 nm. OD values from the control plate were subtracted from the OD values obtained with cells prior to normalizing the data to % negative control (cells without added energy source).

[4] = test system: DMSO-differentiated HL-60 cells; assay: Energy use by DMSO-differentiated HL-60 cells; type: cell-based, human; conditions: for activity at 30 µM / activity at 100 µM / activity at 330 µM / activity at 1000 µM / activity at 3300 µM / activity at 10000 µM / activity at 15000 µM / activity at 20000 µM: Homo sapiens, HL-60, 24 h, read-out: Energy Use by DMSO-Differentiated HL-60 Cells
Method: In this Example, methods for testing in vitro-differentiated cells for their ability to use multiple energy sources are described. Prior to differentiation, HL-60 cells were cultured as described in Example 27. DMSO-induced differentiation (Odani et al., Res. Commun. Mol. Pathol. Pharmacol. 108:381-391 [2000]; and Yamaguchi et al., Biol. Pharm. Bull. 20:943-947 [1997]) was accomplished by incubation of the cells in the presence of 1.25% DMSO for 3 days.
After washing, HL-60 cells were resuspended in DME-R. An aliquot of the cell suspension was counted by trypan blue exclusion and the cell density was adjusted to 6.67×10^5/mL. Fifty μL of DME-R were added to each well of the appropriate number of half area, 96-well plates, followed by 25 μL of the appropriate dilution of each test energy source. Stocks of 133 mM of each test chemical were prepared in tissue culture grade water, sterile filtered, and dilutions were prepared in a master plate so that, upon dilution into a half-area 96-well microtiter plate to a total well volume of 150 μL, the final concentrations would be 0.033 to 20 mM. Negative control wells received 25 μL of tissue culture grade water. The cells were plated at a volume of 75 μL/well, giving a final cell density of 5×10^4/well. For each plate containing energy sources and cells, a second, control plate containing only energy sources was prepared with the same total volume of liquid (148 μL/well). Plates were incubated at 5% CO2, 90-100% humidity, and 37° C. for 24 hours prior to addition of the MTS/MPMS calorimetric reagent (7.5 μL/well). The color formed in each well 24 hours after addition of the colorimetric reagent, was measured with a plate reader at 490 nm with a reference wavelength of 650 nm. OD values from the control plate were subtracted from the OD values obtained with cells prior to normalizing the data to % negative control (cells without added energy source).

SMILES: N[C@@H](Cc1c[nH]cn1)C(=O)O [L-histidine]
- suitability as nitrogen source (growth, purple color) [1]: not suitable
- activity at 30 µM ([2]; Conc. 0.03 mM): 119%
- activity at 100 µM ([2]; Conc. 0.10 mM): 117%
- activity at 330 µM ([2]; Conc. 0.33 mM): 105%
- activity at 1000 µM ([2]; Conc. 1.00 mM): 118%
- activity at 3300 µM ([2]; Conc. 3.3 mM): 162%
- activity at 10000 µM ([2]; Conc. 10 mM): 144%
- activity at 15000 µM ([2]; Conc. 15 mM): 149%
- activity at 20000 µM ([2]; Conc. 20 mM): 104%
- activity at 30 µM ([3]; Conc. 0.03 mM): 123%
- activity at 100 µM ([3]; Conc. 0.10 mM): 121%
- activity at 330 µM ([3]; Conc. 0.33 mM): 128%
- activity at 1000 µM ([3]; Conc. 1.00 mM): 135%
- activity at 3300 µM ([3]; Conc. 3.3 mM): 146%
- activity at 10000 µM ([3]; Conc. 10 mM): 120%
- activity at 15000 µM ([3]; Conc. 15 mM): 123%
- activity at 20000 µM ([3]; Conc. 20 mM): 95%
- activity at 30 µM ([4]; Conc. 0.03 mM): 119%
- activity at 100 µM ([4]; Conc. 0.10 mM): 123%
- activity at 330 µM ([4]; Conc. 0.33 mM): 128%
- activity at 1000 µM ([4]; Conc. 1.00 mM): 157%
- activity at 3300 µM ([4]; Conc. 3.3 mM): 172%
- activity at 10000 µM ([4]; Conc. 10 mM): 171%
- activity at 15000 µM ([4]; Conc. 15 mM): 140%
- activity at 20000 µM ([4]; Conc. 20 mM): 114%

SMILES: O=C(O)[C@@H]1C[C@@H](O)CN1 [hydroxy L-proline]
- Energy Use by Undifferentiated HL-60 Cells ([2]; Conc. 0.03 mM): 109.9 % of negative control
- Energy Use by Undifferentiated HL-60 Cells ([2]; Conc. 0.10 mM): 112.9 % of negative control
- Energy Use by Undifferentiated HL-60 Cells ([2]; Conc. 0.33 mM): 99.6 % of negative control
- Energy Use by Undifferentiated HL-60 Cells ([2]; Conc. 1.00 mM): 104.7 % of negative control
- Energy Use by Undifferentiated HL-60 Cells ([2]; Conc. 3.3 mM): 114.7 % of negative control
- Energy Use by Undifferentiated HL-60 Cells ([2]; Conc. 10 mM): 117.8 % of negative control
- Energy Use by Undifferentiated HL-60 Cells ([2]; Conc. 15 mM): 124.2 % of negative control
- Energy Use by Undifferentiated HL-60 Cells ([2]; Conc. 20 mM): 101.8 % of negative control
- response greater than the negative control ([3]; 0.033 to 20 mM, 24 h culture + 24 h color development): < 30%
- HL-60 Cell Responses to Selected Compounds from PM1 and PM2 ([3]; Conc. 0.03 mM): 125.0 % of negative control
- HL-60 Cell Responses to Selected Compounds from PM1 and PM2 ([3]; Conc. 0.10 mM): 122.8 % of negative control
- HL-60 Cell Responses to Selected Compounds from PM1 and PM2 ([3]; Conc. 0.33 mM): 121.5 % of negative control
- HL-60 Cell Responses to Selected Compounds from PM1 and PM2 ([3]; Conc. 1.00 mM): 128.4 % of negative control
- HL-60 Cell Responses to Selected Compounds from PM1 and PM2 ([3]; Conc. 3.3 mM): 129.6 % of negative control
- HL-60 Cell Responses to Selected Compounds from PM1 and PM2 ([3]; Conc. 10 mM): 121.5 % of negative control
- HL-60 Cell Responses to Selected Compounds from PM1 and PM2 ([3]; Conc. 15 mM): 111.8 % of negative control
- HL-60 Cell Responses to Selected Compounds from PM1 and PM2 ([3]; Conc. 20 mM): 99.2 % of negative control
- Energy Use by DMSO-Differentiated HL-60 Cells ([4]; Conc. 0.03 mM): 102.8 % of negative control
- Energy Use by DMSO-Differentiated HL-60 Cells ([4]; Conc. 0.10 mM): 110.5 % of negative control
- Energy Use by DMSO-Differentiated HL-60 Cells ([4]; Conc. 0.33 mM): 120.5 % of negative control
- Energy Use by DMSO-Differentiated HL-60 Cells ([4]; Conc. 1.00 mM): 121.9 % of negative control
- Energy Use by DMSO-Differentiated HL-60 Cells ([4]; Conc. 3.3 mM): 129.0 % of negative control
- Energy Use by DMSO-Differentiated HL-60 Cells ([4]; Conc. 10 mM): 126.9 % of negative control
- Energy Use by DMSO-Differentiated HL-60 Cells ([4]; Conc. 15 mM): 109.0 % of negative control
- Energy Use by DMSO-Differentiated HL-60 Cells ([4]; Conc. 20 mM): 92.0 % of negative control

SMILES: COC(=O)CCC(=O)O [mono methyl succinate]
- activity at 30 µM ([2]; Conc. 0.03 mM): 104%
- activity at 100 µM ([2]; Conc. 0.10 mM): 99.9%
- activity at 330 µM ([2]; Conc. 0.33 mM): 112%
- activity at 1000 µM ([2]; Conc. 1.00 mM): 141%
- activity at 3300 µM ([2]; Conc. 3.3 mM): 182%
- activity at 10000 µM ([2]; Conc. 10 mM): 223%
- activity at 15000 µM ([2]; Conc. 15 mM): 261%
- activity at 20000 µM ([2]; Conc. 20 mM): 199%
- activity at 30 µM ([3]; Conc. 0.03 mM): 118%
- activity at 100 µM ([3]; Conc. 0.10 mM): 130%
- activity at 330 µM ([3]; Conc. 0.33 mM): 133%
- activity at 1000 µM ([3]; Conc. 1.00 mM): 142%
- activity at 3300 µM ([3]; Conc. 3.3 mM): 167%
- activity at 10000 µM ([3]; Conc. 10 mM): 173%
- activity at 15000 µM ([3]; Conc. 15 mM): 139%
- activity at 20000 µM ([3]; Conc. 20 mM): 93.3%
- activity at 30 µM ([4]; Conc. 0.03 mM): 104%
- activity at 100 µM ([4]; Conc. 0.10 mM): 93.4%
- activity at 330 µM ([4]; Conc. 0.33 mM): 124%
- activity at 1000 µM ([4]; Conc. 1.00 mM): 142%
- activity at 3300 µM ([4]; Conc. 3.3 mM): 184%
- activity at 10000 µM ([4]; Conc. 10 mM): 194%
- activity at 15000 µM ([4]; Conc. 15 mM): 156%
- activity at 20000 µM ([4]; Conc. 20 mM): 118%
